Test results from patent US8846690B2, “Heterocyclic carboxylic acid derivatives having a 2,5-substituted oxazolopyrimidine ring” (Sanofi, priority 2010, dated 2014).

Target: T1, human Edg-1 receptor (Homo sapiens, UniProt P21453)
T1 construct: FLAG (N); expressed in transfected cells; membrane preparation
Assay: GTP-γ-S assay using human Edg-1 receptors (scintillation proximity assay, CHO Flp-In membrane preparation)
Format: biochemical
Settings: test compound 10 μM; high control 10 μM S1P regarded as 100% activation; background-corrected; triplicate
Text: Determination of the Pharmacological Activity A) GTP-γ-S Assay Using Human Edg-1 Receptors
In order to determine the Edg-1 receptor activation by the compounds of the invention, a GTP-γ-S (guanosine 5′-[y-thio]triphosphate) assay for G-protein coupled receptor binding based on the scintillation proximity assay principle was used, employing a cell membrane preparation from a CHO Flp-In cell line which constitutively overexpresses the human Edg-1 receptor.
A membrane preparation was obtained by standard methods from the afore-described CHO Flp-In cell line constitutively overexpressing the human Edg-1 receptor. Briefly, the cryopreserved cells were taken in culture and grown until confluency in T175 cell culture flasks (Becton Dickinson, cat. no. 35 5001). Cell culture was stopped by washing with calcium-free phosphate-buffered saline (PBS; Gibco, cat. no. 14190), and cells were harvested with a rubber-policeman in 4° C. cold and calcium-free PBS supplemented with a protease inhibitor cocktail (complete protease inhibitor; Roche, cat. no. 1697498; 1 tablet per 50 ml) and subsequently centrifuged at 4° C. for 15 min at 1100×g (Heraeus Minifuge T). For cell lysis, the pellet was resuspended in a 4° C. cold hypotonic buffer consisting of 5 mM HEPES (Sigma-Aldrich, cat. no. H-0981), 1 mM EDTA (disodium salt; Merck, cat. No. 8418) supplemented with protease inhibitor cocktail (as above) in which cells were stored for another 15 min on ice. After lysis, cells were centrifuged at 4° C. for 10 min at 400×g (Heraeus Minifuge T). The pellet was disrupted in a Dounce homogenizer, diluted with the supernatant of the previous centrifugation and subsequently centrifuged at 4° C. for 10 min at 500×g (Heraeus Minifuge T) in order to separate nuclei and still intact cells from the membranes mainly present in the supernatant. The supernatant was then diluted in hypotonic buffer and centrifuged (Beckmann, Avanti J251) at approximately 18600×g for 2 h at 4° C. […] Protein concentration of the membrane preparation was determined in a sample by means of a commercial protein assay (Bio-Rad, DC Protein Assay, cat. nos. 500-0113, 500-0114, 500-0115).
The Edg-1 membrane preparation obtained in (b) was employed in a commercially available scintillation proximity assay (SPA) kit for G-protein coupled receptor binding from Amersham Biosciences/GE Healthcare (code RPNQ0210), in which ligand-induced binding of ^35S-radiolabled GTP-γ-S to the receptor-containing membrane, which is bound to scintillation beads, stimulates the emission of light and allows to quantify the in vitro activity of the Edg-1 agonistic compound. […]

T1 sequence (P21453 whole entry): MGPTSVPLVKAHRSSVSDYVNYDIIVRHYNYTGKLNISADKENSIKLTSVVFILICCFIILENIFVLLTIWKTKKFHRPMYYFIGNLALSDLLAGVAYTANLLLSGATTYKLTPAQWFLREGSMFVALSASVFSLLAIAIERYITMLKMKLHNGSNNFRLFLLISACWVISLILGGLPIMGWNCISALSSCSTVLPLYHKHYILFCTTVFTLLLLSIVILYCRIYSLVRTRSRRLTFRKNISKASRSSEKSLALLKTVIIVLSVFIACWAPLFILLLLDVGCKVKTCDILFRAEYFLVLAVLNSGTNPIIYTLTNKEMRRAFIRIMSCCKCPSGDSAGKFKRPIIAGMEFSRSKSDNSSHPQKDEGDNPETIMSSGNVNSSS

SMILES	Edg-1 receptor activation in percent of the activation by 10 μM S1P (% Activation) [%]
Cc1cc(-c2nc3cnc(Oc4ccccc4F)nc3o2)cc(C)c1OCC(=O)N1CCC[C@H]1C(=O)O [Example 1, (S)-1-(2-{4-[5-(2-Fluoro-phenoxy)-oxazolo[5,4-d]pyrimidin-2-yl]-2,6-dimethyl-phenoxy}-acetyl)-pyrrolidine-2-carboxylic acid]	115
O=C(O)[C@@H]1CCCN1C(=O)CCc1ccc(-c2nc3cnc(Oc4ccccc4F)nc3o2)cc1 [Example 4, (S)-1-(3-{4-[5-(2-Fluoro-phenoxy)-oxazolo[5,4-d]pyrimidin-2-yl]-phenyl}-propionyl)-pyrrolidine-2-carboxyl is acid]	103
O=C(O)[C@@H]1CCCN1C(=O)/C=C/c1ccc(-c2nc3cnc(Oc4ccccc4F)nc3o2)cc1 [Example 3, (S)-1-((E)-3-{4-[5-(2-Fluoro-phenoxy)-oxazolo[5,4-d]pyrimidin-2-yl]-phenyl}-acryloyl)-pyrrolidine-2-carboxylic acid]	82
Cc1cc(-c2nc3cnc(Oc4ccccc4F)nc3o2)cc(C)c1OC(C)C(=O)N1CCC[C@H]1C(=O)O (stereo partly drawn) [Example 2, (S)-1-(2-{4-[5-(2-Fluoro-phenoxy)-oxazolo[5,4-d]pyrimidin-2-yl]-2,6-dimethyl-phenoxy}-propionyl)-pyrrolidine-2-carboxylic acid]	93
